# Laboratory results reported in US6891043B2, “Inhibitors of fatty acid amide hydrolase” (The Scripps Research Institute, priority 2000, dated 2005).
# “Also recorded” adds a separate entry of the source.
# Columns and labels:
# FAAH [1] = target: T1, FAAH (Homo sapiens, UniProt O00519); settings: FAAH substrate preference; cited from earlier work
# T1 sequence (O00519 1-579): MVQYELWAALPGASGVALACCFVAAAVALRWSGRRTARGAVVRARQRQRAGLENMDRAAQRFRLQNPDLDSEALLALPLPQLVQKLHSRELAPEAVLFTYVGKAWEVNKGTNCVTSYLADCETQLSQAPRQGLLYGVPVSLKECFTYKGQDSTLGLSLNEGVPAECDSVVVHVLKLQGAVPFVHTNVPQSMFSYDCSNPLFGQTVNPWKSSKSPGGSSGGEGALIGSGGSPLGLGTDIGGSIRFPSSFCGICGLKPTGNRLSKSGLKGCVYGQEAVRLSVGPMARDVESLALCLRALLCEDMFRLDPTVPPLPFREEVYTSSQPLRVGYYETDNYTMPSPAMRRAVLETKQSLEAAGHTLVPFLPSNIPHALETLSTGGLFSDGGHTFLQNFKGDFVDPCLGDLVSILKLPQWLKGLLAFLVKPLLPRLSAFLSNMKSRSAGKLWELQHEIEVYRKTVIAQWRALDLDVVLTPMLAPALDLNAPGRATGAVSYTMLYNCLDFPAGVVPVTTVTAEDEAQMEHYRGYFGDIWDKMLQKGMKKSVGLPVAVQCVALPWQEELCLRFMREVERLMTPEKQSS
# FAAH [2] = target: T2, FAAH (Rattus norvegicus, UniProt P97612); test: FAAH inhibition: breakdown of 14C-oleamide to oleic acid, solubilized liver plasma membrane extract; assay type: biochemical; settings: for Ki: Dixon method, 14C-oleamide substrate, pH 9.0, 20-23° C., read-out: K1
# T2 construct: using a solubilized liver plasma membrane extract containing FAAH; from tissue; host or cells: liver (solubilized plasma membrane extract)
# T2 sequence (P97612 1-579): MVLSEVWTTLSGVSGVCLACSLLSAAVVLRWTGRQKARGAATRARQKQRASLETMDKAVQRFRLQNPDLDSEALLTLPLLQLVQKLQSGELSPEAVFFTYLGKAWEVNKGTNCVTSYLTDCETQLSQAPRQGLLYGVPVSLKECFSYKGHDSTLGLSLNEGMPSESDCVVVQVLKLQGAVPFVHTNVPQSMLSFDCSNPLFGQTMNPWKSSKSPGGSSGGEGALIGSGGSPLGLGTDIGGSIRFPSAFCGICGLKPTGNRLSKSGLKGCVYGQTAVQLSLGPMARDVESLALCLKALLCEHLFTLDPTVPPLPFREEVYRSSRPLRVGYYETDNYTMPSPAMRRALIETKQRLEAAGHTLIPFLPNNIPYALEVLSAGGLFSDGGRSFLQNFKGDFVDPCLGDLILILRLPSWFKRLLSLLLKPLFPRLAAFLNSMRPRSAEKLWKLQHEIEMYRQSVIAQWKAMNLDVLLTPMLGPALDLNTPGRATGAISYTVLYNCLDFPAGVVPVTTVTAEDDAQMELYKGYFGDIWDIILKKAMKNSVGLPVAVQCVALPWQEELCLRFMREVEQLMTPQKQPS
# Method: K1 values were determined by the Dixon method α-intercepts of weighted linear fits of […] plots at constant substrate concentration, which were converted to K1 values using the formula K1=−xint/[1+[S]/Km]).
# treated animals = test: In vivo sleep study with 17 (wakefulness, SWS2, REM sleep); settings: 10 mg/kg ip, first 4 h of administration, versus controls
# Text: The in vivo properties of the inhibitors detailed herein and their action on the identified oleamide and anandamide potential sites of action are presented herein. […] Accordingly, the inhibitors disclosed herein are useful as inhibitors of FAAH and related amidases, and as a therapeutic agents with applications as sleep aids or analgesics which act by preserving endogenous levels of oleamide and anandamide.
Compound,FAAH inhibitor potency / activity in words (FAAH [2]),melting point,also measured
CCCCC/C=C\C/C=C\C/C=C\C/C=C\CCCC(N)=O [arachidonamide],,,rel. rate of hydrolysis (FAAH [1]): 1
"CCCCCCCC/C=C\CCCCCCCC(=O)c1nnn(C)n1 [compound 14, 1-(2-Methyl-2H-tetrazol-5-yl)-1-oxo-9(Z)-octadecene]",matched the potency of the trifluoromethyl ketone 3,,
"CCCCCCCC/C=C\CCCCCCCC(=O)c1nc2ncccc2o1 [compound 29, 1-(Oxazolo[4,5-b]pyridin-2-yl)-1-oxo-9(Z)-octadecene]","most potent inhibitor; also recorded: more potent than 33 and 35, respectively",,
"CCCCCCCCCCCCCCCC(=O)c1nc2ncccc2o1 [compound 42, 1-(Oxazolo[4,5-b]pyridin-2-yl)-1-oxo-hexadecane]",,77 to 78 °C,
"CCCCCCCCCCCCCC(=O)c1nc2ncccc2o1 [compound 43, 1-(Oxazolo[4,5-b]pyridin-2-yl)-1-oxo-tetradecane]",,73 to 74 °C,
"CCCCCCCCCCCC(=O)c1nc2ncccc2o1 [compound 44, 1-(Oxazolo[4,5-b]pyridin-2-yl)-1-oxo-dodecane]",,68 to 69 °C,
"CCCCCC(=O)c1nc2ncccc2o1 [compound 48, 1-(Oxazolo[4,5-b]pyridin-2-yl)-1-oxo-hexane]",,51 to 53 °C,
"CCCCC(=O)c1nc2ncccc2o1 [compound 49, 1-(Oxazolo[4,5-b]pyridin-2-yl)-1-oxo-pentane]",,35 to 37 °C,
"O=C(CCCCCc1ccccc1)c1nc2ncccc2o1 [compound 53, 1-(Oxazolo[4,5-b]pyridin-2-yl)-1-oxo-6-phenylhexane]",,61 to 63 °C,Ki (FAAH [2]): < 0.0002 µM
"O=C(CCCCCCc1ccccc1)c1nc2ncccc2o1 [compound 54, 1-(Oxazolo[4,5-b]pyridin-2-yl)-1-oxo-7-phenylheptane]",,60 to 61 °C,
"O=C(CCCCCCCc1ccccc1)c1nc2ncccc2o1 [compound 55, 1-(Oxazolo[4,5-b]pyridin-2-yl)-1-oxo-8-phenyloctane]",,70 to 73 °C,
"CCCCCCCCCCCC(O)c1nc2ncccc2o1 (stereo not shown) [compound 60, 1-Hydroxy-1-(oxazolo[4,5-b]pyridin-2-yl)dodecane]",,,Ki (FAAH [2]): 1.2 µM; times less potent than the corresponding keto derivative (reduction to alcohol) (FAAH [2]; α-hydroxy versus α-keto): approximately 10^3 times
CCCCCCCC/C=C\CCCCCCCC(N)=O [oleamide],,,rel. rate of hydrolysis (FAAH [1]): 0.7

# The next lines start with results.
FAAH inhibitor potency / activity in words (FAAH [2]),melting point,Compound,also measured
"more potent than 33 and 35, respectively",,"CCCCCCCC/C=C\CCCCCCCC(=O)c1cccnn1 [compound 17, 1-Oxo-1-(3-pyridazinyl)-9(Z)-octadecene]","decrease of time spent in wakefulness, of the total time (treated animals): 14%; increase of time spent in REM sleep (treated animals): 75%; increase of time spent in REM sleep, of total time (treated animals): 4%; increase of time spent in SWS2 (treated animals): 45%; increase of time spent in SWS2, of the total time (treated animals): 10%; reduction of time spent in wakefulness (treated animals): 20%"
more potent than 37,,"CCCCCCCC/C=C\CCCCCCCC(=O)c1nc2ccccc2o1 [compound 23, 1-(2-Benzoxazolyl)-1-oxo-9(Z)-octadecene]",
greatly diminished,,"CCCCCCCC/C=C\CCCCCCCC(=O)c1nc2cccc(C)c2o1 [compound 28, 1-(7-Methylbenzoxazol-2-yl)-1-oxo-9(Z)-octadecene]",
more potent than 34 and 36,,"CCCCCCCC/C=C/CCCCCCCC(=O)c1nc2ncccc2o1 [compound 33, 1-(Oxazolo[4,5-b]pyridin-2-yl)-1-oxo-9(E)-octadecene]",
more potent than 34 and 36,,"CCCCCCCC/C=C/CCCCCCCC(=O)c1cccnn1 [compound 35, 1-Oxo-1-(3-pyridazinyl)-9(E)-octadecene]",
,60 to 62 °C,"CCCCCCCCCC(=O)c1nc2ncccc2o1 [compound 45, 1-(Oxazolo[4,5-b]pyridin-2-yl)-1-oxo-decane]",
,60 to 61 °C,"CCCCCCCC(=O)c1nc2ncccc2o1 [compound 46, 1-(Oxazolo[4,5-b]pyridin-2-yl)-1-oxo-octane]",
,52 to 53 °C,"CCCCCCC(=O)c1nc2ncccc2o1 [compound 47, 1-(Oxazolo[4,5-b]pyridin-2-yl)-1-oxo-heptane]",
,103 to 105 °C,"CC(=O)c1nc2ncccc2o1 [compound 50, 1-(Oxazolo[4,5-b]pyridin-2-yl)-1-oxo-ethane]",
inactive,84 to 85 °C,"CCCCCCCCCCCCCCCCCCc1nc2ncccc2o1 [compound 61, 1-(Oxazolo[4,5-b]pyridin-2-yl)octadecane]",additional fold loss of binding affinity with removal of the alcohol (FAAH [2]; versus α-hydroxy compound): 10^2 fold; fold loss of binding affinity / potency with removal of the keto group (FAAH [2]; versus α-keto compound): 10^5 fold
